Measurements taken from patent US20230165872A1, “COMBINATION OF BCMA-DIRECTED T CELL THERAPY AND AN IMMUNOMODULATORY COMPOUND” (Juno Therapeutics, Inc., priority 2020, published 2023).

Key:
Assay type in all cases: cell-based, human
[1] = system: OPM2 target cells; assay: Acute co-culture cytokine secretion of anti-BCMA CAR T cells with OPM2; conditions: OPM2, E:T 1:1, 24 hours, 0.01-10,000 nM, FIG. 2B
Description: (§1) Anti-tumor effects of anti-BCMA CAR T cells, alone and in combination with cell immunomodulatory compounds Compound A (iberdomide, (S)-3-[4-(4-morpholin-4-ylmethyl-benzyloxy)-1-oxo-1,3-dihydro-isoindol-2-yl]-piperidine-2,6-dione) or Compound B ((S)-4-(4-(4-(((2-(2,6-dioxopiperidin-3-yl)-1-oxoisoindolin-4-yl)oxy)methyl)benzyl)piperazin-1-yl)-3-fluorobenzonitrile), were assessed in two different BCMA-expressing target multiple myeloma cell lines RPMI-8226 or OPM-2. Anti-BCMA CAR+ T cells were generated as described in Example 1.
(§2) The anti-BCMA CAR-expressing T cells were incubated with target cells, RPMI 8226 (BCMA^med human multiple myeloma cell line) or OPM2 cells (BCMA^med human multiple myeloma cell line) target cells, at an E:T ratio of 1:1. The co-culture incubation with target cells was carried out in the presence of Compound A (0.01 nM, 0.1 nM, 1 nM, 10 nM, 100 nM, 1000 nM, or 10,000 nM) or Compound B (0.01 nM, 0.1 nM, 1 nM, 10 nM, 100 nM, 1000 nM, or 10,000 nM).
Cytokine secretion of IL-2, TNFα and IFN-gamma cytokines from cell culture supernatant of the co-cultures after 24 hours of incubation with targets cells was determined. Co-culture of anti-BCMA CAR+ T cells with Compound A enhanced the CAR T cytokine production both against RPMI-8226 target cells (FIG. 2A) and OPM2 target cells (FIG. 2B).

[2] = system: Irradiated DF-15R target cells; assay: Serial stimulation assay of anti-BCMA CAR T cells
Description: A serial stimulation assay or serial re-challenge assay was used to assess activity of anti-BCMA CAR T cells following repeated rounds of antigen stimulation, in the presence and absence of Compound A (iberdomide, (S)-3-[4-(4-morpholin-4-ylmethyl-benzyloxy)-1-oxo-1,3-dihydro-isoindol-2-yl]-piperidine-2,6-dione).
Anti-BCMA CAR+ T cells (generated as described in Example 1) were plated in triplicate at 1×10^5 cells/well on 96-well plates. Irradiated DF-15R target cells, which is a multiple myeloma (MM) cell line generated to be resistant to effect of cell immunomodulatory compounds (Lopez-Girona et al. Leukemia, 2012; 26:2326-2335), were added at an effector-to-target (E:T) ratio of 1:2 in the presence or absence of various concentrations (10 nM) of Iberdomide.
Every 3-4 days (start of each new round), CAR T cells were counted. Cells then were harvested and re-plated at the initial seeding density with fresh media, newly-added Iberdomide at the same concentration, where applicable, and newly-thawed, irradiated target cells. Five rounds of stimulation were carried out during a 19 day culture period. At day 5 and day 9 (24 hours after a re-plating (reset) cytokine production in the supernatant was assessed. Results were assessed in two different donors.

[3] = system: anti-BCMA CAR T cells; assay: Viability and count of anti-BCMA CAR T cells after 7-day chronic stimulation with BCMA-conjugated beads
Description: Cryofrozen anti-BCMA CAR T cells, produced substantially as described in Example 1 and formulated at a 1:1 ratio of CD4+ and CD8^+ T cells, were thawed. To subject cells to chronic stimulation conditions, the anti-BCMA CAR+ T cells were stimulated with 50 μg BCMA conjugated beads (diameter about 4.5 μm from a 50 μg/ml BCMA-conjugated bead composition, generated as described in Example 2) at a ratio of T cells to beads of 1:1 in the presence or absence of Compound A (iberdomide, (S)-3-[4-(4-morpholin-4-ylmethyl-benzyloxy)-1-oxo-1,3-dihydro-isoindol-2-yl]-piperidine-2,6-dione) (1 nM or 10 nM), Compound B ((S)-4-(4-(4-(((2-(2,6-dioxopiperidin-3-yl)-1-oxoisoindolin-4-yl)oxy)methyl)benzyl)piperazin-1-yl)-3-fluorobenzonitrile) (0.1 nM or 1 nM), or DMSO vehicle control. The cells were then incubated at 37° C., 5% CO2 for 7 days.
At day 7, anti-BCMA CAR cells of all the samples were counted using a cellometer machine and stained for flow cytometric analysis. Cells were stained with a viability dye and analyzed by flow cytometry. Viability and count of anti-BCMA CAR T cells was increased in the presence of Compound A or Compound B.
Cryofrozen anti-BCMA CAR T cells, produced substantially as described in Example 1 and formulated at a 1:1 ratio of CD4+ and CD8+ T cells, were thawed. […] The cells were then incubated at 37° C., 5% CO2 for 7 days.
At day 7, anti-BCMA CAR cells of all the samples were counted using a cellometer machine and stained for flow cytometric analysis. Cells were stained with a viability dye and analyzed by flow cytometry.

[4] = system: RPMI-8226 target cells; assay: Acute co-culture cytokine secretion of anti-BCMA CAR T cells with RPMI-8226; conditions: RPMI-8226, E:T 1:1, 24 hours, 0.01-10,000 nM, FIG. 2A
Description: as §1, §2

[5] = 24 hours after first reset (day 5) or second reset (day 9), FIG. 5B
[6] = Example 3: day 7, Compound A 1 or 10 nM, Compound B 0.1 or 1 nM
[7] = Example 7: day 7, lenalidomide 1000 nM, Compound A 0.1, 1 or 10 nM, FIG. 8

O=C1CC[C@H](N2Cc3c(OCc4ccc(CN5CCOCC5)cc4)cccc3C2=O)C(=O)N1 [Compound A, (S)-3-[4-(4-morpholin-4-ylmethyl-benzyloxy)-1-oxo-1,3-dihydro-isoindol-2-yl]-piperidine-2,6-dione]
enhanced: CAR T cytokine production (IL-2, TNFα, IFN-gamma in supernatant) [1] | anti-BCMA CAR cell counts (number of population doublings) ([2]; 10 nM, E:T 1:2, five rounds over 19 days, two donors, FIG. 5A) | CAR T cytokine production (IL-2, TNFα, IFN-gamma in supernatant) [4]
increased: IL-2 production [2, 5] | TNF-alpha production [2, 5] | count of anti-BCMA CAR T cells [3, 6] | viability of anti-BCMA CAR T cells [3, 6] | count of anti-BCMA CAR T cells [3, 7] | viability of anti-BCMA CAR T cells [3, 7]
